Test results from patent US20210161937A1, “ACTIVATION OF MITOCHONDRIAL UNCOUPLING AS A THERAPEUTIC INTERVENTION” (The Trustees of Columbia University in the City of New York, priority 2018, published 2021).
Entries after “also recorded” stand apart in the source; their conditions may differ.

Legend:
Drosophila [1] = test: Lifespan analysis of flies fed drug-supplemented adult medium; format: in vivo; details: for median lifespan of control flies versus dose / median lifespan of per^01 null mutants versus dose: varying concentrations fed during adulthood; for lifespan of per^01 mutants / median lifespan of per^01 null mutants versus dose: per^01 null mutants; for lifespan of per^01 mutants: dietary DNP or BHT; for lifespan: wild-type (control) male flies, dietary 2,4 DNP 0.01-0.1 mM or BHT 0.1-1 mM vs ethanol vehicle
Experimental: Drosophila were reared from embryos in low-density bottles with standard medium containing 3.8% glucose, 1.9% sucrose, 3% yeast nutritional flake (Lab Scientific), 6.5% cornmeal, 0.8% agar, supplemented with 1.5% methylparaben mix (10% methylparaben in ethanol) and 1% propionic acid. Adult flies that eclosed within a 24 hour period were collected and transferred to “adult medium” containing 3.8% glucose, 1.9% sucrose, 8% cornmeal, 1% agar, and either 0.01%, 0.5%, 3%, 5%, or 10% yeast extract (Difco) supplemented with 1.5% methylparaben mix and 1% propionic acid for lifespan and biochemical analysis. All percentages given in wt/v except methylparaben mix, propionic acid given in v/v.
All drugs were supplemented into cooled (65° C.) liquid adult medium (containing 3% yeast extract) following preparation to the following final concentration(s): RU486 100μg/mL. RU486 (Cayman Chemical) dissolved in ethanol was supplemented into medium after eclosion at a final concentration of 100 μg/mL (with the exception of DaGS>UAS-Ucp4c and controls, 5 μg/mL) vehicle controls were supplemented with same volume of ethanol alone. Developmental induction was achieved by adding RU486 at concentration of 5 μg/mL, or ethanol vehicle, followed by adults being aged on standard food containing no RU486. For uncoupler feeding 2,4 DNP or BHT purchased from Sigma was dissolved in ethanol fresh at the time of making food and added in to the media, at the indicated concentrations. 2,4 DNP (0.01-0.1 mM) and BHT (0.1-1 mM).
(§1) Newly eclosed flies (˜24 hr) were collected and allowed to mate for 48 hr. Female and male flies were separated and maintained at a density of 30-35 flies per vial in a humidified, temperature-controlled (25° C.) incubator with a 12-hour light-dark cycle. For starvation analysis, flies were aged for 7 days in vials containing indicated diets and then transferred to 1% agar in a humidified, temperature-controlled incubator with 12-hour light-dark cycle at 25° C. Death was scored every 1-2 days, with live flies transferred to fresh vials every 2-3 days. Statistical significance was determined by log-rank analysis.

Drosophila [2] = test: CO2 respiration assay after mitochondrial drug feeding; format: in vivo; details: 24 hr feeding; 500 μM Oligomycin, 1 mM rotenone, 5 mM 2,4 DNP, 0.5% stearate
Experimental: Measurement of CO2 production was performed similarly to Yatsenko et al. 2014. Briefly, 10 flies were placed in a sealed pipette tip-capillary respirometer (without anesthesia) containing a small amount of soda-lime. Respirometers were placed capillary side down in dH20 containing 0.1% blue food dye in a sealed TLC chamber placed in a 25° C. incubator. Empty sealed respirometers (containing no flies) were used to subtract blue dye background migration from experimental (fly-containing) samples. Flies were tested for 2 hr between at circadian timepoints, and CO2 production rate was indirectly determined by the amount of liquid movement up the capillary per hour after background subtraction. At least 6 groups of 10 flies were used per genotype for quantification for each condition. For mitochondrial drug feeding experiments, flies were placed on food containing the following compounds for 24 hr: 500 μM Oligomycin, 1 mM rotenone, 5 mM 2,4 DNP, 0.5% stearate, or ethanol vehicle controls.

[3] = test system: posterior midgut, ISCs/EBs; test: MitoSOX intestinal staining and esg+ cell quantification in posterior midguts of Esg-GAL4>GFP flies; format: in vivo, Drosophila; details: Esg-GAL4>GFP flies fed DNP vs vehicle
Experimental: Flies were anesthetized on ice and intestines were dissected in cold Schneider's Medium (Thermo Fisher Scientific). Intestines were then incubated in 75 nM of TMRE (Thermo Fisher Scientific) in Schneider's Medium, for 10 min at room temperature. Samples were rinsed three times for 30 sec with a solution consisting of 20 nM of TMRE Schneider's Medium. For MitoSOX staining dissected intestines were immersed in 50 μM MitoSOX Red (Invitrogen) in Schneider's Medium for 5 min at room temp, then washed three times for 30 sec in Schneider's Medium. MitoSOX or TMRE samples were quickly mounted in Schneider's Medium containing 1.5 μg/mL Hoechst stain. Intestines were imaged within 20 min on a Ziess LSM800 confocal microscope. Z-stacks spanning the entire posterior midgut were taken. Quantification of TMRE or MitoSOX was performed using ImageJ in which mean fluorescent intensity values were quantified. TMRE foci were quantified using the ImageJ (Schneider et al. 2012) local maxima tool, using identical thresholding for all images. Foci number were normalized to the number of nuclei in the measured field of view. Quantification of MitoSOX output of ISCs/EBs was determined by mean intensity from individual Z-planes with regions of interest defined by esgGFP expression, cell size, and basal location within the intestinal epithelium. Mean intensity of MitoSOX fluorescence levels in all ISCs/EBs were averaged for each individual intestine. A minimum of 9 midguts were used for each genotype or drug treatment.

ISC tumors = test: Notch-RNAi induced ISC tumor formation (Esg^ts>UAS-Notch-RNAi flies); format: in vivo, Drosophila
Experimental: as §1
Ese^ts>UAS-Notch-RNAi flies were reared at 18° C. Upon eclosion flies were collected, sexed and placed on media containing 0.05 mM 2,4 DNP, or ethanol vehicle food at 30° C. Time-points of day 0, 8, and 16 days were taken. Intestines were dissected, fixed, and stained as above pHH3 protocol, with anti-GFP (cell signaling) and 1.5 μg/mL Hoechst stain. Quantification of GFP area was performed by using the ImageJ count particle tool in the GFP channel normalized to total area of the posterior midgut that was imaged. 7-13 guts were used for each condition and timepoint.

Structure (SMILES)	lifespan of per^01 mutants (Drosophila [1])	median lifespan of per^01 null mutants versus dose (Drosophila [1])	lifespan (Drosophila [1])	respiration (relative CO2 production) of control flies (Drosophila [2])	respiration (relative CO2 production) of per^01 mutants (Drosophila [2])	other results
Cc1cc(C(C)(C)C)c(O)c(C(C)(C)C)c1 [BHT, butylated hydroxytoluene]	did not extend the lifespan of per^01 mutants	no median lifespan increase was observed	extended the lifespan of wild-type male flies in a dose-dependent manner; also recorded: increased lifespan compared to vehicle-fed controls	–	–	median lifespan of control flies versus dose (Drosophila [1]): increased their median lifespan in a dose-dependent manner
O=[N+]([O-])c1ccc(O)c([N+](=O)[O-])c1 [DNP, 2,4-dinitrophenol]	did not extend the lifespan of per^01 mutants	no median lifespan increase was observed	extended the lifespan of wild-type male flies in a dose-dependent manner	increased the respiration of control flies to levels similar to those of per^01 mutants	did not increase the respiration of per^01 mutants	median lifespan of control flies versus dose (Drosophila [1]; listed as 2,4 DNP): increased their median lifespan in a dose-dependent manner; age-related esg+ cell overproliferation (esg+ cell count) [3]: reduced; mitochondrial ROS output of ISC/EB populations (MitoSOX staining in GFP-marked ISCs/EBs) [3]: reduced; mitochondrial ROS output of the entire posterior midgut (MitoSOX staining) [3]: reduced; age-related esg+ cell overproliferation (esg+ cell count) ([3]; listed as 2,4 DNP): fewer esg+cells; mitochondrial ROS output of ISC/EB populations (MitoSOX staining in GFP-marked ISCs/EBs) ([3]; listed as 2,4 DNP): decreased MitoSOX staining specifically in ISCs/EBs; mitochondrial ROS output of the entire posterior midgut (MitoSOX staining) ([3]; listed as 2,4 DNP): decreased Mitosox staining of the entire posterior midgut; progression of ISC tumors (GFP+ area in the midgut) (ISC tumors; 0.05 mM 2,4 DNP in media vs ethanol vehicle, 30° C., day 0, 8, 16): slowed the progression of ISC tumors; also recorded: delayed tumor formation; lifespan of flies with Notch-induced tumor formation (ISC tumors; dietary 2,4 DNP vs vehicle): extended the shortened lifespan of these animals; also recorded: extended lifespans
CC#C[C@]1(O)CC[C@H]2[C@@H]3CCC4=CC(=O)CCC4=C3[C@@H](c3ccc(N(C)C)cc3)C[C@@]21C [RU486, mifepristone]	–	–	–	–	–	lifespan on RU486 administration (induces constitutive overexpression of UCPs) (Drosophila [1]; RU486-inducible UCP overexpression (DaGS>UAS-Ucp4C flies)): increased lifespan
CC[C@H]1/C=C/C=C/C[C@@H](C)[C@H](O)[C@@](C)(O)C(=O)[C@@H](C)[C@H](O)[C@@H](C)C(=O)[C@@H](C)[C@H](O)[C@@H](C)/C=C/C(=O)O[C@@H]2[C@H](C)[C@H](CC1)O[C@]1(CC[C@H](C)[C@H](C[C@@H](C)O)O1)[C@H]2C [oligomycin]	–	–	–	inhibited the CO2 output of both control and per^01 animals to a similar degree	inhibited the CO2 output of both control and per^01 animals to a similar degree	–
C=C(C)[C@H]1Cc2c(ccc3c2O[C@@H]2COc4cc(OC)c(OC)cc4[C@@H]2C3=O)O1 [rotenone]	–	–	–	inhibited the CO2 output of both control and per^01 animals to a similar degree	inhibited the CO2 output of both control and per^01 animals to a similar degree	–
CCCCCCCCCCCCCCCCCC(=O)O [stearic acid]	–	–	–	increased the respiration of control flies to levels similar to those of per^01 mutants	did not increase the respiration of per^01 mutants	–
